ChEMBL document CHEMBL1133920, “Novel 4-piperidinopyridine inhibitors of oxidosqualene cyclase-lanosterol synthase derived by consideration of inhibitor pK(a)” (Bioorg Med Chem Lett, 2001)

What was measured:
Rattus norvegicus [1] = experiment: Percent reduction in food intake was determined after oral administration of 100 mg/kg in rat after 24 hours
[2] = Concentration for the inhibition of rat microsomal oxidosqualene cyclase-lanosterol synthase (OSC)
[3] = molecular target: T1, Lanosterol synthase (Rattus norvegicus) (UniProt P48450); experiment: Percent inhibition of rat microsomal oxidosqualene cyclase-lanosterol synthase (OSC) at 100 nM
T1 sequence (whole entry): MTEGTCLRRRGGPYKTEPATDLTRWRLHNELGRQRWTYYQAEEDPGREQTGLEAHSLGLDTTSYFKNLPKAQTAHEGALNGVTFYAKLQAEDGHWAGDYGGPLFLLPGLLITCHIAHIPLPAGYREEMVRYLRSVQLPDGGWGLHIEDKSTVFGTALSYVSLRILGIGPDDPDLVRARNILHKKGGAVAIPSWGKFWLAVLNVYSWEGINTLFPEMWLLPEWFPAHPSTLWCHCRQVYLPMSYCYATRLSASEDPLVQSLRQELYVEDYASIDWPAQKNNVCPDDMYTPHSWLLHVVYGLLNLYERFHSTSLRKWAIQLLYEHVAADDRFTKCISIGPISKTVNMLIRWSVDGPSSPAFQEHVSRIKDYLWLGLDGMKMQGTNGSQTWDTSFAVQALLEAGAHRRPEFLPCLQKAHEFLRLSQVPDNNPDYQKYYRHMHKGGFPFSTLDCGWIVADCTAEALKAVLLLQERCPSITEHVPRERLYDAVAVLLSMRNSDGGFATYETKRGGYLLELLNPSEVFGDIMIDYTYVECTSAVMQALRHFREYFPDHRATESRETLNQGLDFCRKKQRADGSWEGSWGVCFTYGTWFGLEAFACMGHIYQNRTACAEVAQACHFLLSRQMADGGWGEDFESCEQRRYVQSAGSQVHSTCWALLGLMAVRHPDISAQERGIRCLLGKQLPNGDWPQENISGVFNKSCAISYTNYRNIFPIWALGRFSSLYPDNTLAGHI

Rattus norvegicus [4] = species: Rattus norvegicus; experiment: Effective dose for the 50% inhibition of rat cholesterol biosynthesis; assay type: functional
Rattus norvegicus [5] = species: Rattus norvegicus; experiment: Effective dose for the 80% inhibition of rat cholesterol biosynthesis; assay type: functional
Rattus norvegicus [6] = experiment: Percent feeding effect was determined after oral administration of 100 mg/kg in rat; assay type: functional
[7] = pKa was determined; assay type: physicochemical
Rattus norvegicus [8] = experiment: Percent reduction in food intake was determined after oral administration of 50 mg/kg in rat after 24 hours; assay type: functional

`O=C(c1ccc(C(F)(F)F)cc1)N1CCC(=Cc2ccc(C3=NCCO3)cc2)CC1` showed a Reduction (Rattus norvegicus [1]) of 15%.
Compound `O=C(c1ccc(Cl)cc1)c1ccc(OC2CN3CCC2CC3)cc1` (stereo not given) has an IC50 [2] of 0.058 µM.
In the case of `O=C(N1CCN(c2ccncc2Cl)CC1)N1CCN(S(=O)(=O)c2ccc(Br)cc2)CC1`, the inhibition [3] is reported as 100%, the ED50 (Rattus norvegicus [4]) is reported as 1.1 mg/kg and the ED80 (Rattus norvegicus [5]) is reported as 2.3 mg/kg.
With `O=C(N1CCC(c2ccncc2)CC1)N1CCN(S(=O)(=O)c2ccc(Br)cc2)CC1` the inhibition [3] was 94%, the ED50 (Rattus norvegicus [4]) was 0.4 mg/kg and the Effect (Rattus norvegicus [6]) was 23%. For the same compound, the ED80 (Rattus norvegicus [5]) was 1.8 mg/kg.
With `O=C(N1CCN(c2ccncc2Cl)CC1)N1CCN(S(=O)(=O)c2ccc(Cl)cc2)CC1` the inhibition [3] was 87%, the ED50 (Rattus norvegicus [4]) was 0.6 mg/kg and the Effect (Rattus norvegicus [6]) was 14%. It also gave an ED80 (Rattus norvegicus [5]) of 1.4 mg/kg and a pKa [7] of 5.8.
`O=C(C1CCN(c2ccncc2)CC1)N1CCN(S(=O)(=O)c2ccc(Br)cc2)CC1` gave a Reduction (Rattus norvegicus [8]) of 64%.
Work on `O=C(C1CCN(c2ncncc2Br)CC1)N1CCN(S(=O)(=O)c2ccc(Br)cc2)CC1` yielded an inhibition [3] of 47% and an ED50 (Rattus norvegicus [4]) greater than 2 mg/kg.
`O=C(C1CCN(c2ccncc2Br)CC1)N1CCN(S(=O)(=O)c2ccc(Br)cc2)CC1` gave an inhibition [3] of 89% and an ED50 (Rattus norvegicus [4]) of 0.5 mg/kg.
`O=C(C1CCN(S(=O)(=O)c2ccc(Br)cc2)CC1)N1CCC(c2ccncc2)CC1` gave an inhibition [3] of 100%, an ED50 (Rattus norvegicus [4]) of 0.5 mg/kg and an ED80 (Rattus norvegicus [5]) of 4.7 mg/kg.
With `O=C(N1CCN(c2ccncc2Cl)CC1)N1CCN(S(=O)(=O)c2ccc(C(F)(F)F)cc2)CC1` the inhibition [3] was 100%, the ED50 (Rattus norvegicus [4]) was 0.2 mg/kg and the ED80 (Rattus norvegicus [5]) was 0.7 mg/kg.
Compound `O=C(N1CCN(c2ccncc2Cl)CC1)N1CCN(S(=O)(=O)c2ccc(F)cc2)CC1` has an inhibition [3] of 100%, an ED50 (Rattus norvegicus [4]) of 1.1 mg/kg and an ED80 (Rattus norvegicus [5]) of 2.3 mg/kg.
Work on `O=C(C1CCN(c2ccncc2F)CC1)N1CCN(S(=O)(=O)c2ccc(C(F)(F)F)cc2)CC1` yielded an inhibition [3] of 100%, an ED50 (Rattus norvegicus [4]) of 0.4 mg/kg and an ED80 (Rattus norvegicus [5]) of 1 mg/kg. For the same compound, the pKa [7] was 6.7.
With `O=C(N1CCC(c2ccncc2)CC1)N1CCN(S(=O)(=O)c2ccc(Cl)cc2)CC1` the inhibition [3] was 91%, the ED50 (Rattus norvegicus [4]) was 1.7 mg/kg and the ED80 (Rattus norvegicus [5]) was 3.6 mg/kg. It also gave a pKa [7] of 5.8.
Work on `O=C(N1CCC(c2ccncc2)CC1)N1CCN(S(=O)(=O)c2ccc(F)cc2)CC1` yielded an inhibition [3] of 97% and an ED50 (Rattus norvegicus [4]) of 0.5 mg/kg.
Work on `O=C(C1CCN(c2ccncn2)CC1)N1CCN(S(=O)(=O)c2ccc(Br)cc2)CC1` yielded an ED50 (Rattus norvegicus [4]) of 0.4 mg/kg and a Reduction (Rattus norvegicus [1]) of 17%.
